Assays:
[1] = tertiary amine; cited from earlier work
[2] = cited from earlier work
[3] = test system: Caco-2 cell monolayers; test: Transport (Papp) across Caco-2 cell monolayers, AP to BL; conditions: after the initial 20-minute transport period
[4] = as above; conditions: human, Caco-2, Apparent permeability coefficients of oxycodone (±standard deviation) (n = 3); for Papp A→B at 20 min, 0.02 mg/ml: after 20 minutes; for Papp A→B at 80 min, 0.02 mg/ml: oxycodone 0.02 mg/ml, AP-to-BL
[5] = test system: Caco-2 cell monolayers; test: Membrane integrity (TEER) of Caco-2 cell monolayers before and after transport; assay type: cell-based; conditions: at the concentrations used; TEER 980-1002 Ωcm^2 before, not changed after transport
Method: Each treatment was performed in triplicate. […] Samples then underwent LC/MS/MS analysis.

[6] = in vitro; conditions: human, Caco-2, Apparent permeability coefficients of ibuprofen (±standard deviation) (n = 3)

| Structure (SMILES) | pKa [1] | absolute bioavailability ([2]; literature (Leow et al. 1992)) [%] | percentage of transported oxycodone from apical to basolateral compartment ([3]; ibuprofen 0.8 mg/ml) [%] | percentage of transported oxycodone from apical to basolateral compartment ([3]; ibuprofen 1.6 mg/ml) [%] | transport of oxycodone, effect of ibuprofen ([3]; ibuprofen 3.2 mg/ml (precipitating)) | percentage of transported oxycodone from apical to basolateral compartment ([3]; no ibuprofen) [%] | Papp A→B at 20 min, 0.02 mg/ml ([4]; ibuprofen 0 mg/ml) [×10⁻⁶ cm/s] | Papp A→B at 20 min, 0.02 mg/ml ([4]; ibuprofen 0.8 mg/ml) [×10⁻⁶ cm/s] | Papp A→B at 20 min, 0.02 mg/ml ([4]; ibuprofen 1.6 mg/ml) [×10⁻⁶ cm/s] | Papp A→B at 20 min, 0.02 mg/ml ([4]; ibuprofen 3.2 mg/ml) [×10⁻⁶ cm/s] | Papp A→B at 80 min, 0.02 mg/ml ([4]; ibuprofen 0 mg/ml) [×10⁻⁶ cm/s] | Papp A→B at 80 min, 0.02 mg/ml ([4]; ibuprofen 0.8 mg/ml) [×10⁻⁶ cm/s] | Papp A→B at 80 min, 0.02 mg/ml ([4]; ibuprofen 1.6 mg/ml) [×10⁻⁶ cm/s] | Papp A→B at 80 min, 0.02 mg/ml ([4]; ibuprofen 3.2 mg/ml (precipitate)) [×10⁻⁶ cm/s] | integrity of Caco-2 cell monolayers (TEER) [5] | Papp A→B at 80 min, 0.2 mg/ml [6] [×10⁻⁶ cm/s] | bioavailability ([2]; literature (Hall et al. 1993)) [%] |
| --- | --- | --- | --- | --- | --- | --- | --- | --- | --- | --- | --- | --- | --- | --- | --- | --- | --- |
| COc1ccc2c3c1O[C@H]1C(=O)CC[C@@]4(O)[C@@H](C2)N(C)CC[C@]314.Cl [oxycodone HCl, oxycodone hydrochloride] | about 9 | 87 | 20 | 19 | did not increase the transport | 15 | 15 ± 0.9 | 20 ± 0.6 | 19 ± 0.3 | 16 ± 0.7 | 54.2 ± 0.9 | 56.9 ± 1.4 | 55.1 ± 1.3 | 50.5 ± 0.5 | did not compromise the integrity |  |  |
| CC(C)Cc1ccc(C(C)C(=O)O)cc1 (stereo not drawn) [ibuprofen] |  |  |  |  |  |  |  |  |  |  |  |  |  |  | did not compromise the integrity | 56.5 ± 4.3 | ~100 |

From patent publication US20040186122A1, “Method of treating acute pain with a unitary dosage form comprising ibuprofin and oxycodone” (Forest Laboratories, Inc., priority 2002, published 2004)
